Assay results reported in patent US20250171459A1, “2-METHYL-4',5'-DIHYDROSPIRO[PIPERIDINE-4,7'-THIENO[2,3-C]PYRAN] DERIVATIVES AS INHIBITORS OF APOL1 AND METHODS OF USING SAME” (Vertex Pharmaceuticals Incorporated, priority 2022, published 2025).

Target: T1, APOL1 (Homo sapiens, UniProt O14791)
T1 sequence (O14791 1-398 S342G/I384M): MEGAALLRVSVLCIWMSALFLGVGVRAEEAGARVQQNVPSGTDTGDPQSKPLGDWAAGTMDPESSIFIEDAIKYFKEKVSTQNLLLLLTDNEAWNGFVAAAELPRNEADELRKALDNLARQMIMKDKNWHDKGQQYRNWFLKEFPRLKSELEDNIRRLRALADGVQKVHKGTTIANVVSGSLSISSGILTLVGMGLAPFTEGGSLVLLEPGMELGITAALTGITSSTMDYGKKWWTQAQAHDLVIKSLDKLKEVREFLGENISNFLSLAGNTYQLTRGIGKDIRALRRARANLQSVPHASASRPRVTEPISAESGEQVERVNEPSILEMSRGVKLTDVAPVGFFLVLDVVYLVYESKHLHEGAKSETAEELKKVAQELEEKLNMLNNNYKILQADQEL
Test: MultiTox-Fluor Multiplex Cytotoxicity Assay in tet-inducible APOL1 T-REx-HEK293 cells (cell rescue, ratio of dead to live cells)
Assay type: cell-based
Details: tet-inducible transgenic APOL1 T-REx-HEK293 cell lines, 50 ng/mL tet, 24 hours; read-out: IP50 (i.e., IC50 for cell proliferation)
Summary of the method: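 T-REx-HEK293 cells with tet-inducible APOL1 were treated with compound (10 μM top, 10-point 3-fold dilution, duplicate) plus 50 ng/mL tetracycline for 24 h at 37° C, in DMEM with 2% tet-free FBS. MultiTox-Fluor protease signals gave a dead/live ratio, normalized to no tet (100% viability) and tet alone (0%).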

CCc1cc2c(s1)CCO[C@@]21CCN(C[C@H]2C[C@@H](NC(=O)OC(C)(C)C)C2)[C@@H](C)C1 [Compound 1039]
IC50: < 100 nM

CS(=O)(=O)CCn1cc(CN2CCC3(CC2C2CC2)OCCc2cc(Cl)sc23)cn1 (stereo not drawn) [Compound 1040, 2-chloro-2′-cyclopropyl-1′-[[1-(2-methylsulfonylethyl)pyrazol-4-yl]methyl]spiro[4,5-dihydrothieno[2,3-c]pyran-7,4′-piperidine]]
IC50: < 100 nM

CCc1cc2c(s1)CCOC21CCN(Cc2cnn(C)c2)C(CC)C1 (stereo not drawn) [Compound 1041, 2,2′-diethyl-1-((1-methyl-1H-pyrazol-4-yl)methyl)-6′,7′-dihydrospiro[piperidine-4,4′-thieno [3,2-c]pyran]]
IC50: < 100 nM

CCc1cc2c(s1)CCOC21CCN(Cc2cnn(C)c2)C2(CCC2)C1 (stereo not drawn) [Compound 1042, 2″-ethyl-1′-((1-methyl-1H-pyrazol-4-yl)methyl)-6″,7″-dihydrodispiro[cyclobutane-1,2′-piperidine-4′,4″-thieno[3,2-c]pyran]]
IC50: 100 to 500 nM

CCc1cc2c(s1)CCOC21CCN(Cc2ccc(C(=O)N[C@H]3CC[C@H](O)CC3)nc2)CC1 [Compound 1043, 5-((2′-ethyl-6′,7′-dihydrospiro[piperidine-4,4′-thieno[3,2-c]pyran]-1-yl)methyl)-N-((1r,4r)-4-hydroxycyclohexyl)picolinamide]
IC50: < 100 nM

CCc1cc2c(s1)CCOC21CCN(Cc2ccc(C(=O)Nc3c[nH]c4ccccc34)nc2)CC1 [Compound 1044]
IC50: < 100 nM

CCc1cc2c(s1)CCOC21CCN(Cc2ccc(C(=O)NC(C)(CC)CO)nc2)CC1 (stereo not drawn) [Compound 1045]
IC50: < 100 nM

CCc1cc2c(s1)CCOC21CCN(Cc2ccc(C(=O)N[C@H](C)CO)nc2)CC1 [Compound 1046]
IC50: < 100 nM

CCc1cc2c(s1)CCOC21CCN(Cc2ccc(C(=O)NC(C)(C)CO)nc2)CC1 [Compound 1047]
IC50: < 100 nM

CCc1cc2c(s1)CCOC21CCN(Cc2ccc(C(=O)Nc3cccc4cc[nH]c34)nc2)CC1 [Compound 1048]
IC50: < 100 nM

CCc1cc2c(s1)CCOC21CCN(Cc2ccc(C(=O)NCCC(=O)N3CCCC3)nc2)CC1 [Compound 1049]
IC50: < 100 nM

CCc1cc2c(s1)CCOC21CCN(Cc2ccc(C(=O)N3CC(CO)C3)nc2)CC1 [Compound 1050]
IC50: < 100 nM

CCc1cc2c(s1)CCOC21CCN(Cc2ccc(C(=O)Nc3ccn(C)n3)nc2)CC1 [Compound 1051]
IC50: < 100 nM

CCc1cc2c(s1)CCOC21CCN(Cc2ccc(C(=O)Nc3ccnn3C)nc2)CC1 [Compound 1052]
IC50: < 100 nM

CCc1cc2c(s1)CCOC21CCN(Cc2ccc(C(=O)N[C@H](CC)CO)nc2)CC1 [Compound 1053]
IC50: < 100 nM

CCc1cc2c(s1)CCOC21CCN(Cc2ccc(C(=O)NC(C)CCO)nc2)CC1 (stereo not drawn) [Compound 1054]
IC50: < 100 nM

CCc1cc2c(s1)CCOC21CCN(Cc2ccc(C(=O)NC3CC(O)C3)nc2)CC1 (stereo not drawn) [Compound 1055]
IC50: < 100 nM

CCc1cc2c(s1)CCOC21CCN(Cc2ccc(C(=O)NCCO)nc2)CC1 [Compound 1056]
IC50: 100 to 500 nM

CCc1cc2c(s1)CCOC21CCN(Cc2ccc(C(=O)NC(CO)CO)nc2)CC1 [Compound 1057]
IC50: 100 to 500 nM

CCc1cc2c(s1)CCOC21CCN(Cc2ccc(C(=O)NC3CCCC3=O)nc2)CC1 (stereo not drawn) [Compound 1058]
IC50: 100 to 500 nM

CCc1cc2c(s1)CCOC21CCN(Cc2ccc(C(=O)NCc3ccn(C)n3)nc2)CC1 [Compound 1059]
IC50: 100 to 500 nM

CCc1cc2c(s1)CCOC21CCN(Cc2ccc(C(=O)NCC3CCC(O)C3)nc2)CC1 (stereo not drawn) [Compound 1060]
IC50: 100 to 500 nM

CCc1cc2c(s1)CCOC21CCN(Cc2ccc(C(=O)NCC(C)O)nc2)CC1 (stereo not drawn) [Compound 1061]
IC50: 100 to 500 nM

CCc1cc2c(s1)CCOC21CCN(Cc2ccc(C(=O)NCC3(C)CCOC3)nc2)CC1 (stereo not drawn) [Compound 1062]
IC50: 100 to 500 nM

CCc1cc2c(s1)CCOC21CCN(Cc2ccc(C(=O)NCCOCCO)nc2)CC1 [Compound 1063]
IC50: 100 to 500 nM

CCc1cc2c(s1)CCOC21CCN(Cc2ccc(C(=O)NC3CC(C)(O)C3)nc2)CC1 (stereo not drawn) [Compound 1064]
IC50: 100 to 500 nM

CCc1cc2c(s1)CCOC21CCN(Cc2ccc(C(=O)N(C)[C@H]3CC[C@H](O)CC3)nc2)CC1 [Compound 1065]
IC50: 500 to 1000 nM

CCc1cc2c(s1)CCOC21CCN(Cc2ccc(N3C[C@@H](O)[C@H](O)C3)nc2)CC1 [Compound 1066, (3R,4R)-1-(5-((2′-ethyl-6′,7′-dihydrospiro[piperidine-4,4′-thieno[3,2-c]pyran]-1-yl)methyl)pyridin-2-yl)pyrrolidine-3,4-diol]
IC50: < 100 nM

CCc1cc2c(s1)CCOC21CCN(Cc2ccc(N[C@H]3CC[C@H](O)CC3)nc2)CC1 [Compound 1067]
IC50: < 100 nM

CCc1cc2c(s1)CCOC21CCN(Cc2ccc(NCC3CCOCC3)nc2)CC1 [Compound 1068]
IC50: < 100 nM

CCc1cc2c(s1)CCOC21CCN(Cc2ccc(NS(=O)(=O)C3CC3)nc2)CC1 [Compound 1069]
IC50: 100 to 500 nM

CCc1cc2c(s1)CCOC21CCN(Cc2ccc(NC3(CO)CC3)nc2)CC1 [Compound 1070]
IC50: 100 to 500 nM

CCc1cc2c(s1)CCOC21CCN(Cc2ccc(N(C)S(C)(=O)=O)nc2)CC1 [Compound 1071]
IC50: 100 to 500 nM

CCc1cc2c(s1)CCOC21CCN(Cc2ccc(NC3(COC)CC3)nc2)CC1 [Compound 1072]
IC50: 100 to 500 nM

CCc1cc2c(s1)CCOC21CCN(Cc2cnc(N[C@H]3CC[C@H](O)CC3)nc2)CC1 [Compound 1073, (1r,4r)-4-((5-((2′-ethyl-6′,7′-dihydrospiro[piperidine-4,4′-thieno[3,2-c]pyran]-1-yl)methyl)pyrimidin-2-yl)amino)cyclohexan-1-ol]
IC50: < 100 nM

CCc1cc2c(s1)CCOC21CCN(Cc2cnc(Nc3cccnc3)nc2)CC1 [Compound 1074]
IC50: < 100 nM

CCc1cc2c(s1)CCOC21CCN(Cc2cnc(NCc3cc[nH]c(=O)c3)nc2)CC1 [Compound 1075]
IC50: 100 to 500 nM

CCc1cc2c(s1)CCOC21CCN(Cc2cnc(NC3CC3OC)nc2)CC1 (stereo not drawn) [Compound 1076]
IC50: 100 to 500 nM

CCc1cc2c(s1)CCOC21CCN(Cc2cnc(N[C@H](CC)CO)nc2)CC1 [Compound 1077]
IC50: 100 to 500 nM

CCc1cc2c(s1)CCOC21CCN(Cc2cnc(NCCn3cccn3)nc2)CC1 [Compound 1078]
IC50: 100 to 500 nM

CCc1cc2c(s1)CCOC21CCN(Cc2cn(CC(O)C(C)(C)O)nn2)CC1 (stereo not drawn) [Compound 1079, 1-(4-((2′-ethyl-6′,7′-dihydrospiro[piperidine-4,4′-thieno[3,2-c]pyran]-1-yl)methyl)-1H-1,2,3-triazol-1-yl)-3-methylbutane-2,3-diol]
IC50: 100 to 500 nM

CCc1cc2c(s1)CCOC21CCN(Cc2cn(CCS(N)(=O)=O)nn2)CC1 [Compound 1080]
IC50: 100 to 500 nM

CCc1cc2c(s1)CCOC21CCN(Cc2cn(CC(C)(C)S(C)(=O)=O)nn2)CC1 [Compound 1081]
IC50: 100 to 500 nM

CCc1cc2c(s1)CCOC21CCN(Cc2cn(CC3(O)CCCC3)nn2)CC1 [Compound 1082]
IC50: 100 to 500 nM

CCc1cc2c(s1)CCOC21CCN(Cc2cn(CCS(=O)(=O)NC)nn2)CC1 [Compound 1083]
IC50: 500 to 1000 nM

CCc1cc2c(s1)CCOC21CCN(Cc2cn(CC(O)CC)nn2)CC1 (stereo not drawn) [Compound 1084]
IC50: 500 to 1000 nM

CCc1cc2c(s1)CCOC21CCN(Cc2cn(CCS(C)(=O)=O)nn2)CC1 [Compound 1085]
IC50: 500 to 1000 nM

CCc1cc2c(s1)CCOC21CCN(Cc2cn(CCS(=O)(=O)C3CC3)nn2)CC1 [Compound 1086]
IC50: 500 to 1000 nM
